From patent US10500166B2, “Methods for the treatment of erectile dysfunction using fispemifene” (QUATRX PHARMACEUTICALS, priority 2007, dated 2019)

Key:
[1] = test system: SHBG; experiment: Phase I repeated dose study 101-50202: serum SHBG; format: in vivo, human;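 as to Serum SHBG, Mean: SHBG concentrations in nmol/L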
Description: Fispemifene has been studied in two phase I studies in humans—in a single dose and a repeated dose study. Effect of fispemifene on hormone levels was one main focus of the repeated dose study. The phase I repeated dose study (number 101-50202) was a randomized, double-blind, placebo-controlled 28-day dose-escalation study performed in 31 healthy, elderly men, aged 50-68 years. The main objective of the study was to investigate the tolerability, safety and pharmacokinetics of fispemifene after repeated oral doses, but the study focused also on the effects of fispemifene on serum free and total testosterone, estradiol, and other relevant hormones. The fispemifene doses 10, 30, 100 and 300 mg per day and placebo were administered once every morning as capsules containing 10 mg or 100 mg of fispemifene, or placebo.
The variables for safety and tolerability were adverse events, vital signs, 12-lead ECG, clinical laboratory evaluations, physical examination, ultrasound examinations (mammary glands) and inhibin B. For pharmacokinetics, the concentrations of fispemifene and its metabolite(s) were to be evaluated. For pharmacodynamics, serum concentrations of FSH, LH, estradiol, testosterone, SHBG, prolactin, aldosterone, cortisol and TSH before and during treatment were measured and compared with the concentrations in the placebo-group.

[2] = test system: calculated free testosterone; experiment: Example 3 study in hypogonadal men: calculated serum free testosterone (ITT); format: in vivo, human
Description: FIG. 7 depicts a graph of the data of the study from Example 3 showing the calculated serum free testosterone level (ng/dL) over time for each of the treatment groups. The bars from left to right for each of the BL (baseline), 2 week, 4 week, and 6 week timepoints (the 6 week timepoint occurred 2 weeks after the discontinuation of study drug at week 4) correspond to the placebo, 100 mg, 200 mg, and 300 mg/day doses, respectively;
A randomized, double-blind, placebo controlled, parallel-group study of once-daily doses of fispemifene (100, 200, and 300 mg/day) given for 4 weeks was conducted in a population of hypogonadal men. Subjects were required to meet all of the following inclusion criteria at screening and prior to randomization to be eligible for the study:
There were 77 subjects total. The number of subjects randomized to the 100 mg fispemifene, 200 mg fispemifene, 300 mg fispemifene, and placebo arms were 21, 21, 19, and 16, respectively.
Subjects were randomly assigned to one of four treatment groups in a 1:1:1:1 ratio: • Treatment A (100 mg): fispemifene 100 mg+placebo+placebo; • Treatment B (200 mg): fispemifene 100 mg+fispemifene 100 mg+placebo; • Treatment C (300 mg): fispemifene 100 mg+fispemifene 100 mg+fispemifene 100 mg; and • Treatment D (Placebo): placebo+placebo+placebo.
Subjects took one dose (three capsules) of study medication once a day at home for 4 weeks. Capsules were to be taken in the morning immediately after breakfast, with the exception of the morning of the Week 4 visit. Capsules were not to be taken on the morning of the Week 4 visit because trough plasma levels of fispemifene were determined by a blood sample taken at this visit. Each subject was randomly assigned to treatment with one of the 3 different dose regimens of fispemifene or placebo vehicle. Each subject received a 4 week supply of study drug.
Blood samples were taken from the subjects within 1 week prior to dosing with study drug to establish baseline values; after 2 and 4 weeks of randomization; and 2 weeks after the last dose of study drug. Serum was prepared from those samples and used to determine the mean % change from baseline in total testosterone, free testosterone, SHBG (sex hormone-binding globulin), DHT (dihydrotestosterone), E2 (estradiol), LH (luteinizing hormone), FSH (follicle stimulating hormone), and inhibin B.
1. Percent change from baseline in free testosterone and calculated free testosterone at Weeks 2, 4, and 6;

[3] = 100 mg/day, Week 6 (2 weeks after discontinuation)
[4] = 100 mg/day, to Week 6 (2 weeks after discontinuation)
[5] = 200 mg/day, Week 6 (2 weeks after discontinuation)
[6] = 200 mg/day, to Week 6 (2 weeks after discontinuation)
[7] = 300 mg/day, Week 6 (2 weeks after discontinuation)
[8] = 300 mg/day, to Week 6 (2 weeks after discontinuation)

OCCOCCOc1ccc(/C(=C(/CCCl)c2ccccc2)c2ccccc2)cc1 [Fispemifene, (Z)-2-{2-[4-(4-Chloro-1,2-diphenylbut-1-enyl)phenoxy]ethoxy}ethanol]
Serum SHBG, Mean ([1]; 10 mg/day, Baseline): 47.7 nmol/L | Serum SHBG, Mean ([1]; 10 mg/day, Day 8): 46.3 nmol/L | Serum SHBG, Mean ([1]; 10 mg/day, Day 15): 48.2 nmol/L | Serum SHBG, Mean ([1]; 10 mg/day, Day 22): 50.2 nmol/L | Serum SHBG, Mean ([1]; 10 mg/day, Day 28): 45.2 nmol/L | Serum SHBG, Mean ([1]; 30 mg/day, Baseline): 34.2 nmol/L | Serum SHBG, Mean ([1]; 30 mg/day, Day 8): 34.2 nmol/L | Serum SHBG, Mean ([1]; 30 mg/day, Day 15): 37.4 nmol/L | Serum SHBG, Mean ([1]; 30 mg/day, Day 22): 37.2 nmol/L | Serum SHBG, Mean ([1]; 30 mg/day, Day 28): 36.6 nmol/L | Serum SHBG, Mean ([1]; 100 mg/day, Baseline): 41.7 nmol/L | Serum SHBG, Mean ([1]; 100 mg/day, Day 8): 47.7 nmol/L | Serum SHBG, Mean ([1]; 100 mg/day, Day 15): 52.0 nmol/L | Serum SHBG, Mean ([1]; 100 mg/day, Day 22): 55.7 nmol/L | Serum SHBG, Mean ([1]; 100 mg/day, Day 28): 50.8 nmol/L | Serum SHBG, Mean ([1]; 300 mg/day, Baseline): 50.7 nmol/L | Serum SHBG, Mean ([1]; 300 mg/day, Day 8): 64.2 nmol/L | Serum SHBG, Mean ([1]; 300 mg/day, Day 15): 66.2 nmol/L | Serum SHBG, Mean ([1]; 300 mg/day, Day 22): 65.2 nmol/L | Serum SHBG, Mean ([1]; 300 mg/day, Day 28): 58.3 nmol/L | effect on serum concentration of SHBG ([1]; during the 28 days of treatment): increased | Calculated Free Testosterone, Max ([2]; 100 mg/day, Baseline (Visit 2)): 7.54 ng/dL | Calculated Free Testosterone, Mean ± SD ([2]; 100 mg/day, Baseline (Visit 2)): 4.81 ± 1.368 ng/dL | Calculated Free Testosterone, Median ([2]; 100 mg/day, Baseline (Visit 2)): 4.95 ng/dL | Calculated Free Testosterone, Min ([2]; 100 mg/day, Baseline (Visit 2)): 2.19 ng/dL | Calculated Free Testosterone, Max ([2]; 100 mg/day, Week 2): 10.27 ng/dL | Calculated Free Testosterone, Mean ± SD ([2]; 100 mg/day, Week 2): 6.64 ± 1.732 ng/dL | Calculated Free Testosterone, Median ([2]; 100 mg/day, Week 2): 6.46 ng/dL | Calculated Free Testosterone, Min ([2]; 100 mg/day, Week 2): 4.32 ng/dL | Calculated Free Testosterone, Max ([2]; 100 mg/day, Week 4): 9.13 ng/dL | Calculated Free Testosterone, Mean ± SD ([2]; 100 mg/day, Week 4): 6.59 ± 1.396 ng/dL | Calculated Free Testosterone, Median ([2]; 100 mg/day, Week 4): 6.63 ng/dL | Calculated Free Testosterone, Min ([2]; 100 mg/day, Week 4): 4.15 ng/dL | Calculated Free Testosterone, Max [2, 3]: 7.05 ng/dL | Calculated Free Testosterone, Mean ± SD [2, 3]: 5.15 ± 1.057 ng/dL | Calculated Free Testosterone, Median [2, 3]: 5.10 ng/dL | Calculated Free Testosterone, Min [2, 3]: 2.57 ng/dL | Calculated Free Testosterone, % Change from Baseline, Max ([2]; 100 mg/day, to Week 2): 100% | Calculated Free Testosterone, % Change from Baseline, Median ([2]; 100 mg/day, to Week 2): 36% | Calculated Free Testosterone, % Change from Baseline, Min ([2]; 100 mg/day, to Week 2): 8% | Calculated Free Testosterone, % Change from Baseline, Max ([2]; 100 mg/day, to Week 4): 157% | Calculated Free Testosterone, % Change from Baseline, Median ([2]; 100 mg/day, to Week 4): 36% | Calculated Free Testosterone, % Change from Baseline, Max [2, 4]: 115% | Calculated Free Testosterone, % Change from Baseline, Median [2, 4]: 8% | Calculated Free Testosterone, Max ([2]; 200 mg/day, Baseline (Visit 2)): 7.29 ng/dL | Calculated Free Testosterone, Mean ± SD ([2]; 200 mg/day, Baseline (Visit 2)): 4.80 ± 1.143 ng/dL | Calculated Free Testosterone, Median ([2]; 200 mg/day, Baseline (Visit 2)): 4.70 ng/dL | Calculated Free Testosterone, Min ([2]; 200 mg/day, Baseline (Visit 2)): 2.66 ng/dL | Calculated Free Testosterone, Max ([2]; 200 mg/day, Week 2): 8.98 ng/dL | Calculated Free Testosterone, Mean ± SD ([2]; 200 mg/day, Week 2): 6.37 ± 1.386 ng/dL | Calculated Free Testosterone, Median ([2]; 200 mg/day, Week 2): 6.21 ng/dL | Calculated Free Testosterone, Min ([2]; 200 mg/day, Week 2): 4.11 ng/dL | Calculated Free Testosterone, Max ([2]; 200 mg/day, Week 4): 9.83 ng/dL | Calculated Free Testosterone, Mean ± SD ([2]; 200 mg/day, Week 4): 6.64 ± 1.658 ng/dL | Calculated Free Testosterone, Median ([2]; 200 mg/day, Week 4): 6.39 ng/dL | Calculated Free Testosterone, Min ([2]; 200 mg/day, Week 4): 4.05 ng/dL | Calculated Free Testosterone, Max [2, 5]: 7.81 ng/dL | Calculated Free Testosterone, Mean ± SD [2, 5]: 5.153 ± 1.328 ng/dL | Calculated Free Testosterone, Median [2, 5]: 4.88 ng/dL | Calculated Free Testosterone, Min [2, 5]: 3.60 ng/dL | Calculated Free Testosterone, % Change from Baseline, Max ([2]; 200 mg/day, to Week 2): 124% | Calculated Free Testosterone, % Change from Baseline, Median ([2]; 200 mg/day, to Week 2): 28% | Calculated Free Testosterone, % Change from Baseline, Min ([2]; 200 mg/day, to Week 2): 1% | Calculated Free Testosterone, % Change from Baseline, Max ([2]; 200 mg/day, to Week 4): 112% | Calculated Free Testosterone, % Change from Baseline, Median ([2]; 200 mg/day, to Week 4): 40% | Calculated Free Testosterone, % Change from Baseline, Max [2, 6]: 75% | Calculated Free Testosterone, % Change from Baseline, Median [2, 6]: 6% | Calculated Free Testosterone, Max ([2]; 300 mg/day, Baseline (Visit 2)): 7.02 ng/dL | Calculated Free Testosterone, Mean ± SD ([2]; 300 mg/day, Baseline (Visit 2)): 4.66 ± 1.509 ng/dL | Calculated Free Testosterone, Median ([2]; 300 mg/day, Baseline (Visit 2)): 4.94 ng/dL | Calculated Free Testosterone, Min ([2]; 300 mg/day, Baseline (Visit 2)): 0.23 ng/dL | Calculated Free Testosterone, Max ([2]; 300 mg/day, Week 2): 9.79 ng/dL | Calculated Free Testosterone, Mean ± SD ([2]; 300 mg/day, Week 2): 6.43 ± 2.152 ng/dL | Calculated Free Testosterone, Median ([2]; 300 mg/day, Week 2): 7.25 ng/dL | Calculated Free Testosterone, Min ([2]; 300 mg/day, Week 2): 0.14 ng/dL | Calculated Free Testosterone, Max ([2]; 300 mg/day, Week 4): 10.31 ng/dL | Calculated Free Testosterone, Mean ± SD ([2]; 300 mg/day, Week 4): 7.33 ± 2.589 ng/dL | Calculated Free Testosterone, Median ([2]; 300 mg/day, Week 4): 8.40 ng/dL | Calculated Free Testosterone, Min ([2]; 300 mg/day, Week 4): 0.10 ng/dL | Calculated Free Testosterone, Max [2, 7]: 8.02 ng/dL | Calculated Free Testosterone, Mean ± SD [2, 7]: 5.29 ± 1.791 ng/dL | Calculated Free Testosterone, Median [2, 7]: 5.44 ng/dL | Calculated Free Testosterone, Min [2, 7]: 0.22 ng/dL | Calculated Free Testosterone, % Change from Baseline, Max ([2]; 300 mg/day, to Week 2): 83% | Calculated Free Testosterone, % Change from Baseline, Median ([2]; 300 mg/day, to Week 2): 40% | Calculated Free Testosterone, % Change from Baseline, Max ([2]; 300 mg/day, to Week 4): 133% | Calculated Free Testosterone, % Change from Baseline, Median ([2]; 300 mg/day, to Week 4): 59% | Calculated Free Testosterone, % Change from Baseline, Max [2, 8]: 65% | Calculated Free Testosterone, % Change from Baseline, Median [2, 8]: 10%
